# Reference: patent US20230357447A1, “TUMOR ACTIVATED MULTISPECIFIC ANTIBODIES FOR TARGETING CD28 AND PD-L1 AND METHODS OF USE THEREOF” (Janux Therapeutics, Inc., priority 2022, published 2023)
# How the values were obtained:
# Ab-12 = experiment: Octet bio-layer interferometry kinetic binding of Ab-12 to peptides; conditions: Octet RED96, 1:1 binding model
# Protocol: Briefly, streptavidin biosensors were loaded with biotinylated peptides and baselined in buffer. […] After a short association period, sensors were transferred into buffer and the dissociation of bound anti-CD28 scFv or Ab-12 was measured. The timing and steps of the experiment are shown in the accompanying table. Association and dissociation signals were recorded in real time and analyzed using a 1:1 binding model within the instrument software. Analysis using a 1:1 binding model enabled the calculation of the on and off rate constants as well as affinity, KD.
# [1] = tested on: anti-CD28 scFv (SEQ ID NO: 9); experiment: Octet bio-layer interferometry kinetic binding of anti-CD28 scFv to peptides; parameters: species or system human; conditions: Octet RED96; peptide on sensor; CD28 scFv 100-12.5 nM; 1:1 binding model
# Protocol: (§1) Association and dissociation signals were recorded in real time and analyzed using a 1:1 binding model within the instrument software. Analysis using a 1:1 binding model enabled the calculation of the on and off rate constants as well as affinity, KD.
# as §1
structure (smiles),measurement,setting,value
CSCC[C@@H]1NC(=O)[C@H](CC(=O)O)NC(=O)CNC(=O)[C@H](Cc2c[nH]c3ccccc23)NC(=O)[C@H](Cc2ccc(O)cc2)NC(=O)[C@H](Cc2c[nH]cn2)NC(=O)[C@@H](NC(=O)[C@H](Cc2ccc(O)cc2)NC(=O)CN)CSSC[C@@H](C(=O)NCC(=O)O)NC(=O)[C@H](Cc2c[nH]c3ccccc23)NC(=O)[C@H](CCSC)NC(=O)[C@H](C(C)C)NC1=O [Peptide-12],Kd,"Ab-12; biotinylated peptide loaded at 200 nM on streptavidin biosensors, Ab-12 100, 50, 25, 12.5 nM",13.1 nM
same,kdis,"Ab-12; peptide on sensor, Ab-12 100-12.5 nM",0.00127 s⁻¹
same,kdis,[1],0.00167 s⁻¹
